Measured values taken from patent US20070142392A1, “Uses of rifamycins” (ActivBiotics, Inc., priority 2005, published 2007).
Converted amounts (≈) assume the structure as drawn.

Tests used:
Type in all cases: cell-based
S. pneumo. = test: MIC values, S. pneumo. (Tables 1-4)
E. faecalis = test: MIC values, E. faecalis (Tables 1-4)
S. aureus = test: MIC values, S. aureus (Tables 1-4)
H. flu = system: H. flu
E. coli = test: MIC values, E. coli (Tables 1-4)

Row | SMILES | MIC S. pneumo. (S. pneumo.) [ng/mL] | MIC E. faecalis (E. faecalis) [µg/mL] | MIC S. aureus (S. aureus) [µg/mL] | MIC H. flu (H. flu) [µg/mL] | MIC E. coli (E. coli) [µg/mL] | MIC F. faecalis (E. faecalis; Table 2) [µg/mL]
1 | CCOc1c(N2CCN(CCOC)CC2)ccc2nc3c4c5c6c(C)c(O)c4c(=O)c(c-3oc12)NC(=O)/C(C)=C\C=C\[C@H](C)[C@H](O)[C@@H](C)[C@@H](O)[C@@H](C)[C@H](O)[C@H](C)[C@@H](OC)/C=C/O[C@@](C)(O6)C5=O [Compound 96] | 5 (≈ 0.00538 µM) | 1 (≈ 1.08 µM) | 0.015 (≈ 0.0161 µM) | 0.5 (≈ 0.538 µM) | >8 | –
2 | CO[C@H]1/C=C/O[C@@]2(C)Oc3c(C)c(O)c4c(=O)c(c5oc6cc(N7CCN(C(=O)C8CC8)CC7)cc(O)c6nc-5c4c3C2=O)NC(=O)/C(C)=C\C=C\[C@H](C)[C@H](O)[C@@H](C)[C@@H](O)[C@@H](C)[C@H](O)[C@@H]1C [Compound 110] | 4 (≈ 0.00439 µM) | 0.5 (≈ 0.549 µM) | 0.015 (≈ 0.0165 µM) | 0.25 (≈ 0.274 µM) | 8 (≈ 8.78 µM) | –
3 | CCOc1c(N2CCN(CC)CC2)ccc2nc3c4c5c6c(C)c(O)c4c(=O)c(c-3oc12)NC(=O)/C(C)=C\C=C\[C@H](C)[C@H](O)[C@@H](C)[C@@H](O)[C@@H](C)[C@H](O)[C@H](C)[C@@H](OC)/C=C/O[C@@](C)(O6)C5=O [Compound 94] | 0.5 (≈ 0.000556 µM) | 0.5 (≈ 0.556 µM) | 0.008 (≈ 0.0089 µM) | 0.25 (≈ 0.278 µM) | 8 (≈ 8.9 µM) | –
4 | CO[C@H]1/C=C/O[C@@]2(C)Oc3c(C)c(O)c4c(=O)c(c5oc6cc(N7CCC(C)(NC(C)=O)CC7)cc(O)c6nc-5c4c3C2=O)NC(=O)/C(C)=C\C=C\[C@H](C)[C@H](O)[C@@H](C)[C@@H](O)[C@@H](C)[C@H](OC(C)=O)[C@@H]1C [Compound 72] | 0.25 (≈ 0.000262 µM) | 2 (≈ 2.09 µM) | 0.008 (≈ 0.00838 µM) | 0.5 (≈ 0.524 µM) | >8 | –
5 | CO[C@H]1/C=C/O[C@@]2(C)Oc3c(C)c(O)c4c(=O)c(c5oc6cc(N7CCN(C8CCN(C)CC8)CC7)cc(O)c6nc-5c4c3C2=O)NC(=O)/C(C)=C\C=C\[C@H](C)[C@H](O)[C@@H](C)[C@@H](O)[C@@H](C)[C@H](O)[C@@H]1C [Compound 98] | 2 (≈ 0.00213 µM) | 0.5 (≈ 0.532 µM) | 0.015 (≈ 0.016 µM) | 1 (≈ 1.06 µM) | >8 | –
6 | CO[C@H]1/C=C/O[C@@]2(C)Oc3c(C)c(O)c4c(=O)c(c5oc6cc(N7CCC(NC(=O)N8CCC(NC(=O)SC)CC8)CC7)cc(O)c6nc-5c4c3C2=O)NC(=O)/C(C)=C\C=C\[C@H](C)[C@H](O)[C@@H](C)[C@@H](O)[C@@H](C)[C@H](OC(C)=O)[C@@H]1C [Compound 49] | 0.5 (≈ 0.000455 µM) | 8 (≈ 7.28 µM) | 0.06 (≈ 0.0546 µM) | 2 (≈ 1.82 µM) | >8 | –
7 | CO[C@H]1/C=C/O[C@@]2(C)Oc3c(C)c(O)c4c(=O)c(c5oc6cc(N7CCC(N)CC7)cc(O)c6nc-5c4c3C2=O)NC(=O)/C(C)=C\C=C\[C@H](C)[C@H](O)[C@@H](C)[C@@H](O)[C@@H](C)[C@H](O)[C@@H]1C [Compound 39] | 1 (≈ 0.00117 µM) | 2 (≈ 2.33 µM) | 0.03 (≈ 0.035 µM) | 0.25 (≈ 0.292 µM) | >8 | –
8 | CO[C@H]1/C=C/O[C@@]2(C)Oc3c(C)c(O)c4c(=O)c(c5oc6cc(N7CC[C@@H](N(C)C)C7)cc(O)c6nc-5c4c3C2=O)NC(=O)/C(C)=C\C=C\[C@H](C)[C@H](O)[C@@H](C)[C@@H](O)[C@@H](C)[C@H](OC(C)=O)[C@@H]1C [Compound 75] | 0.12 (≈ 0.000131 µM) | 0.12 (≈ 0.131 µM) | 0.002 (≈ 0.00219 µM) | 0.25 (≈ 0.274 µM) | 4 (≈ 4.38 µM) | –
9 | CO[C@H]1/C=C/O[C@@]2(C)Oc3c(C)c(O)c4c(=O)c(c5oc6cc(N7CCCC7)c(C)c(C)c6nc-5c4c3C2=O)NC(=O)/C(C)=C\C=C\[C@H](C)[C@H](O)[C@@H](C)[C@@H](O)[C@@H](C)[C@H](O)[C@@H]1C [Compound 120] | 60 (≈ 0.0714 µM) | 4 (≈ 4.76 µM) | 0.5 (≈ 0.595 µM) | 1 (≈ 1.19 µM) | >8 | –
10 | COC1C=COC2(C)Oc3c(C)c(O)c4c(=O)c(c5oc6cc(N7CC8CCCNC8C7)cc(O)c6nc-5c4c3C2=O)NC(=O)C(C)=CC=CC(C)C(O)C(C)C(O)C(C)C(OC(C)=O)C1C (stereo not shown) [Compound 143] | 0.25 (≈ 0.00027 µM) | 0.12 (≈ 0.13 µM) | 0.004 (≈ 0.00432 µM) | 0.25 (≈ 0.27 µM) | 8 (≈ 8.65 µM) | –
11 | CO[C@H]1/C=C/O[C@@]2(C)Oc3c(C)c(O)c4c(=O)c(c5oc6cc(N7CCC(F)CC7)ccc6nc-5c4c3C2=O)NC(=O)/C(C)=C\C=C\[C@H](C)[C@H](O)[C@@H](C)[C@@H](O)[C@@H](C)[C@H](O)[C@@H]1C [Compound 114] | 8 (≈ 0.00948 µM) | 0.5 (≈ 0.592 µM) | 0.03 (≈ 0.0355 µM) | 0.12 (≈ 0.142 µM) | 8 (≈ 9.48 µM) | –
12 | CO[C@H]1/C=C/O[C@@]2(C)Oc3c(C)c(O)c4c(=O)c(c5oc6cc(N7CCC(N8CCOCC8)CC7)cc(O)c6nc-5c4c3C2=O)NC(=O)/C(C)=C\C=C\[C@H](C)[C@H](O)[C@@H](C)[C@@H](O)[C@@H](C)[C@H](O)[C@@H]1C [Compound 11] | 0.12 (≈ 0.000129 µM) | 0.25 (≈ 0.27 µM) | 0.004 (≈ 0.00431 µM) | 1 (≈ 1.08 µM) | 4 (≈ 4.31 µM) | –
13 | CO[C@H]1/C=C/O[C@@]2(C)Oc3c(C)c(O)c4c(=O)c(c5sc6cc(N7C[C@@H](C)N[C@@H](C)C7)ccc6nc-5c4c3C2=O)NC(=O)/C(C)=C\C=C\[C@H](C)[C@H](O)[C@@H](C)[C@@H](O)[C@@H](C)[C@H](OC(C)=O)[C@@H]1C [Compound 64] | 0.12 (≈ 0.000131 µM) | 0.12 (≈ 0.131 µM) | 0.004 (≈ 0.00438 µM) | 0.25 (≈ 0.274 µM) | 4 (≈ 4.38 µM) | –
14 | CO[C@H]1/C=C/O[C@@]2(C)Oc3c(C)c(O)c4c(=O)c(c5oc6cc(N7CCN(CCN(C)C)CC7)cc(O)c6nc-5c4c3C2=O)NC(=O)/C(C)=C\C=C\[C@H](C)[C@H](O)[C@@H](C)[C@@H](O)[C@@H](C)[C@H](O)[C@@H]1C [Compound 103] | 8 (≈ 0.00875 µM) | 0.5 (≈ 0.547 µM) | 0.03 (≈ 0.0328 µM) | 0.12 (≈ 0.131 µM) | >8 | –
15 | CO[C@H]1/C=C/O[C@@]2(C)Oc3c(C)c(O)c4c(=O)c(c5oc6cc(N7CCC(NS(C)(=O)=O)CC7)cc(O)c6nc-5c4c3C2=O)NC(=O)/C(C)=C\C=C\[C@H](C)[C@H](O)[C@@H](C)[C@@H](O)[C@@H](C)[C@H](OC(C)=O)[C@@H]1C [Compound 25] | 1 (≈ 0.00102 µM) | 2 (≈ 2.05 µM) | 0.008 (≈ 0.00819 µM) | 2 (≈ 2.05 µM) | >8 | –
16 | COC(=O)NC1CCN(c2cc(O)c3nc4c5c6c7c(C)c(O)c5c(=O)c(c-4oc3c2)NC(=O)/C(C)=C\C=C\[C@H](C)[C@H](O)[C@@H](C)[C@@H](O)[C@@H](C)[C@H](OC(C)=O)[C@H](C)[C@@H](OC)/C=C/O[C@@](C)(O7)C6=O)CC1 [Compound 32] | 4000 (≈ 4.18 µM) | >8 | 2 (≈ 2.09 µM) | >8 | >8 | –
17 | COC1C=COC2(C)Oc3c(C)c(O)c4c(=O)c(c5oc6cc(N7CC8C(C7)C8N(C)C)cc(O)c6nc-5c4c3C2=O)NC(=O)C(C)=CC=CC(C)C(O)C(C)C(O)C(C)C(O)C1C (stereo not shown) [Compound 54] | 0.5 (≈ 0.000566 µM) | 2 (≈ 2.26 µM) | 0.008 (≈ 0.00906 µM) | 0.25 (≈ 0.283 µM) | >8 | –
18 | COC1C=COC2(C)Oc3c(C)c(O)c4c(=O)c(c5oc6cc(N7CC8CCCNC8C7)cc(O)c6nc-5c4c3C2=O)NC(=O)C(C)=CC=CC(C)C(O)C(C)C(O)C(C)C(OC(C)=O)C1C (stereo not shown) [Compound 12] | 0.25 (≈ 0.00027 µM) | 0.12 (≈ 0.13 µM) | 0.004 (≈ 0.00432 µM) | 0.25 (≈ 0.27 µM) | 8 (≈ 8.65 µM) | –
19 | COC1C=COC2(C)Oc3c(C)c(O)c4c(=O)c(c5oc6cc(N7CC(C)CC(C)C7)cc(O)c6nc-5c4c3C2=O)NC(=O)C(C)=CC=CC(C)C(O)C(C)C(O)C(C)C(O)C1C (mixture of isomers) [Compound 116] | 2 | 1 | 0.008 | 0.12 | – | –
20 | CO[C@H]1/C=C/O[C@@]2(C)Oc3c(C)c(O)c4c(=O)c(c5oc6c(F)cc(F)cc6nc-5c4c3C2=O)NC(=O)/C(C)=C\C=C\[C@H](C)[C@H](O)[C@@H](C)[C@@H](O)[C@@H](C)[C@H](O)[C@@H]1C [Compound 137] | – | 1 (≈ 1.28 µM) | 0.12 (≈ 0.154 µM) | 2 (≈ 2.57 µM) | >8 | –
21 | CO[C@H]1/C=C/O[C@@]2(C)Oc3c(C)c(O)c4c(=O)c(c5oc6cc(N7CCN(c8ccccc8)CC7)cc(O)c6nc-5c4c3C2=O)NC(=O)/C(C)=C\C=C\[C@H](C)[C@H](O)[C@@H](C)[C@@H](O)[C@@H](C)[C@H](O)[C@@H]1C [Compound 102] | – | 0.06 (≈ 0.0653 µM) | 0.004 (≈ 0.00435 µM) | 0.25 (≈ 0.272 µM) | 4 (≈ 4.35 µM) | –
22 | CO[C@H]1/C=C/O[C@@]2(C)Oc3c(C)c(O)c4c(=O)c(c5oc6c7c(cc(O)c6nc-5c4c3C2=O)N(Cc2ccccc2)CCN7Cc2ccccc2)NC(=O)/C(C)=C\C=C\[C@H](C)[C@H](O)[C@@H](C)[C@@H](O)[C@@H](C)[C@H](OC(C)=O)[C@@H]1C [Compound 85] | – | – | 2 (≈ 1.93 µM) | >8 | >8 | 8 (≈ 7.71 µM)
